According to patent publication US10669261B2, “Heteroarylhydroxypyrimidinones as agonists of the APJ receptor” (BRISTOL-MYERS SQUIBB COMPANY, priority 2015, dated 2020):
Where two headings read alike, the source gives them in different places.

Target: T1, human APJ receptor (Homo sapiens, UniProt P35414)
T1 construct: expressed in transfected cells
T1 sequence (P35414 1-380): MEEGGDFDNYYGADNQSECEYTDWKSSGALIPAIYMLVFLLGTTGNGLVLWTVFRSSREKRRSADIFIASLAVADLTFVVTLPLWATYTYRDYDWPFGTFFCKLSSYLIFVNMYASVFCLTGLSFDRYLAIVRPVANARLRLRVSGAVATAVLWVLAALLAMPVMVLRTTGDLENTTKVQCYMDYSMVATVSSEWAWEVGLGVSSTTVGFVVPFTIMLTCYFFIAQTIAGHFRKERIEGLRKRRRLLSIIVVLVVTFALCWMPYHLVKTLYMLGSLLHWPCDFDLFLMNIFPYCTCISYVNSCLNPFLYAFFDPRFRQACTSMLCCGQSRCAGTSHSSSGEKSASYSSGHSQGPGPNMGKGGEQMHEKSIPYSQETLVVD
Test: Intracellular cAMP accumulation assay (APJ hcAMP, HTRF)
Assay type: cell-based
Conditions: HEK293 cells stably expressing human APJ receptor
Experimental: Intracellular cAMP Accumulation Assay
HEK293 cells stably expressing human APJ receptor were used to assess the activity of compounds. Cultured cells were detached and resuspended in the cAMP Homogeneous Time-Resolved Fluorescence (HTRF) assay buffer (Cisbio cat; #62AM4PEJ). The assay was performed in 384-well assay plates (Perkin-Elmer; cat #6008289) according to assay protocol provided by the manufacturer. Serial dilutions of a compound together with assay buffer containing […] IBMX and 2 μM forskolin were added to each well containing 5,000 cells and incubated for 30 minutes at room temperature. Subsequently, cAMP D2 reagent was added in the lysis buffer followed by the EuK antibody (Cisbio; cat #62AM4PEJ) and incubated for 60 min. The fluorescence emission ratio was measured using fluorometer. The intracellular cAMP concentrations (compound-stimulated inhibition of forskolin-mediated cAMP production) were calculated by extrapolation from a standard curve using known cAMP concentrations. The EC50 values were obtained by fitting the data to a sigmoidal concentration-response curve with variable slope. The maximal achievable inhibition of forskolin-induced cAMP levels (Ymax) for each compound was expressed as relative percentage of inhibition attained using pyroglutamated apelin-13 ((Pyr1)apelin-13) peptide, which was set to 100%.
The examples disclosed below were tested in the APJ in vitro assays described above and were found having human APJ cyclic AMP (hcAMP) activity. The EC50 value of each compound is presented at the end of the example description.
The biological activity of the exemplified compounds of this invention determined by the assay described above is shown at the end of each example.

[1] = Table 1, read-out: hAPJ cAMP EC50 Potency range
[2] = inhibition of forskolin-mediated cAMP production, stated at end of example, read-out: Human APJ cAMP Potency Range

SMILES	EC50 [1] [nM]	EC50 [2] [nM]
CCCCc1nc(=O)c(-c2nnc(Cc3csc(C)n3)o2)c(O)n1-c1c(OCC)cccc1OCC [Example 25, 2-butyl-1-(2,6-diethoxyphenyl)-6-hydroxy-5-{5-[(2-methyl-1,3-thiazol-4-yl)methyl]-1,3,4-oxadiazol-2-yl}-1,4-dihydropyrimidin-4-one]	0.01 to 10	–
CCCCc1nc(=O)c(-c2nnc(Cc3noc4ccccc34)o2)c(O)n1-c1c(C2CC2)cccc1C1CC1 [Example 27, 5-(5-(Benzo[d]isoxazol-3-ylmethyl)-1,3,4-oxadiazol-2-yl)-2-butyl-1-(2,6-dicyclopropylphenyl)-6-hydroxypyrimidin-4(1H)-one]	–	0.01 to 10
CCCCc1nc(=O)c(-c2nnc(Cc3ccc(Cl)cc3)o2)c(O)n1-c1c(OC2CC2)cccc1OC1CC1 [Example 29, 2-butyl-5-(5-(4-chlorobenzyl)-1,3,4-oxadiazol-2-yl)-1-(2,6-dicyclopropoxyphenyl)-6-hydroxypyrimidin-4(1H)-one]	–	10 to 100
CCCCc1nc(=O)c(-c2nnc(Cc3noc4ccccc34)o2)c(O)n1-c1c(OC2CC2)cccc1OC1CC1 [Example 30, 5-[5-(1,2-benzoxazol-3-ylmethyl)-1,3,4-oxadiazol-2-yl]-2-butyl-1-(2,6-dicyclopropoxyphenyl)-6-hydroxy-1,4-dihydropyrimidin-4-one]	0.01 to 10	–
CCCCc1nc(O)c(-c2cnn(Cc3ccccc3)c2)c(=O)n1-c1c(OC)cccc1OC [Example 31, 5-(1-benzyl-1H-pyrazol-4-yl)-2-butyl-3-(2,6-dimethoxyphenyl)-6-hydroxypyrimidin-4(3H)-one]	–	0.01 to 10
CCCCc1nc(O)c(-c2cnn(Cc3ccc(Cl)cc3)c2)c(=O)n1-c1c(OC)cccc1OC [Example 32, 2-butyl-5-{1-[(4-chlorophenyl)methyl]-1H-pyrazol-4-yl}-3-(2,6-dimethoxyphenyl)-6-hydroxy-3,4-dihydropyrimidin-4-one]	0.01 to 10	–
COc1cccc(OC)c1-n1c(COC(C)C)nc(=O)c(-c2nnc(Cc3ccc(Cl)cc3)o2)c1O [Example 36, 5-{5-[(4-chlorophenyl)methyl]-1,3,4-oxadiazol-2-yl}-1-(2,6-dimethoxyphenyl)-6-hydroxy-2-[(propan-2-yloxy)methyl]-1,4-dihydropyrimidin-4-one]	0.01 to 10	–
CCOCc1nc(=O)c(-c2nnc(Cc3ccc(Cl)cc3)o2)c(O)n1-c1c(CC)cccc1CC [Example 37, 5-{5-[(4-chlorophenyl)methyl]-1,3,4-oxadiazol-2-yl}-1-(2,6-diethylphenyl)-2-(ethoxymethyl)-6-hydroxy-1,4-dihydropyrimidin-4-one]	0.01 to 10	–
CCOCc1nc(=O)c(-c2nnc(Cc3csc(-c4ccccc4)n3)o2)c(O)n1-c1c(OC)cccc1OC [Example 39, 1-(2,6-dimethoxyphenyl)-2-(ethoxymethyl)-6-hydroxy-5-{5-[(2-phenyl-1,3-thiazol-4-yl)methyl]-1,3,4-oxadiazol-2-yl}-1,4-dihydropyrimidin-4-one]	10 to 100	–
CCOCc1nc(=O)c(-c2nnc(Cc3ccc(Cl)cc3)o2)c(O)n1-c1c(OC)cccc1OC [Example 40, 5-{5-[(4-chlorophenyl)methyl]-1,3,4-oxadiazol-2-yl}-1-(2,6-dimethoxyphenyl)-2-(ethoxymethyl)-6-hydroxy-1,4-dihydropyrimidin-4-one]	0.01 to 10	–
COc1cccc(OC)c1-n1c(CCC2CC2)nc(=O)c(-c2nnc(Cc3noc4ccccc34)o2)c1O [Example 42, 5-(5-(benzo[d]isoxazol-3-ylmethyl)-1,3,4-oxadiazol-2-yl)-2-(2-cyclopropylethyl)-1-(2,6-dimethoxyphenyl)-6-hydroxypyrimidin-4(1H)-one]	–	0.01 to 10
COc1cccc(OC)c1-n1c(CCC2CC2)nc(=O)c(-c2nnc(CN3CCCC3=O)o2)c1O [Example 43, 2-(2-cyclopropylethyl)-1-(2,6-dimethoxyphenyl)-6-hydroxy-5-{5-[(2-oxopyrrolidin-1-yl)methyl]-1,3,4-oxadiazol-2-yl}-1,4-dihydropyrimidin-4-one]	0.01 to 10	–
COc1cccc(OC)c1-n1c(CCC2CC2)nc(=O)c(-c2nnc(Cc3ccc(Cl)cc3)o2)c1O [Example 45, 5-{5-[(4-chlorophenyl)methyl]-1,3,4-oxadiazol-2-yl}-2-(2-cyclopropylethyl)-1-(2,6-dimethoxyphenyl)-6-hydroxy-1,4-dihydropyrimidin-4-one]	0.01 to 10	–
[2H]C([2H])([2H])Oc1cccc(OC([2H])([2H])[2H])c1-n1c(CCCC)nc(=O)c(-c2nnc(Cc3noc4ccccc34)o2)c1O [Example 48, 5-(5-(Benzo[d]isoxazol-3-ylmethyl)-1,3,4-oxadiazol-2-yl)-2-butyl-1-(2,6-di[^2H3]methoxyphenyl)-6-hydroxypyrimidin-4(1H)-one]	–	0.01 to 10

Now from value to compound:

EC50 [1] [nM]	EC50 [2] [nM]	SMILES
100 to 300	–	CCCCc1nc(=O)c(-c2nnc(Cc3noc4ccccc34)o2)c(O)n1-c1c(OC(C)C)cccc1OC(C)C [Example 24, 5-[5-(1,2-benzoxazol-3-ylmethyl)-1,3,4-oxadiazol-2-yl]-1-[2,6-bis(propan-2-yloxy)phenyl]-2-butyl-6-hydroxy-1,4-dihydropyrimidin-4-one]
0.01 to 10	–	CCCCc1nc(=O)c(-c2nnc(Cc3ccc(Cl)cc3)o2)c(O)n1-c1c(OCC)cccc1OCC [Example 26, 2-butyl-5-{5-[(4-chlorophenyl)methyl]-1,3,4-oxadiazol-2-yl}-1-(2,6-diethoxyphenyl)-6-hydroxy-1,4-dihydropyrimidin-4-one]
–	10 to 100	CCCCc1nc(=O)c(-c2nnc(Cc3noc4ccccc34)o2)c(O)n1-c1c(C#N)cccc1C#N [Example 28, 2-(5-(5-(Benzo[d]isoxazol-3-ylmethyl)-1,3,4-oxadiazol-2-yl)-2-butyl-6-hydroxy-4-oxopyrimidin-1 (4H)-yl)isophthalonitrile]
–	0.01 to 10	CCOCc1nc(=O)c(-c2nnc(Cc3noc4ccccc34)o2)c(O)n1-c1c(OC)cccc1OC [Example 33, 5-(5-(benzo[d]isoxazol-3-ylmethyl)-1,3,4-oxadiazol-2-yl)-1-(2,6-dimethoxyphenyl)-6-hydroxy-2-(ethoxymethyl)pyrimidin-4(1H)-one]
0.01 to 10	–	COc1cccc(OC)c1-n1c(COC(C)C)nc(=O)c(-c2nnc(Cc3noc4ccccc34)o2)c1O [Example 34, 5-[5-(1,2-benzoxazol-3-ylmethyl)-1,3,4-oxadiazol-2-yl]-1-(2,6-dimethoxyphenyl)-6-hydroxy-2-[(propan-2-yloxy)methyl]-1,4-dihydropyrimidin-4-one]
0.01 to 10	–	CCOCc1nc(=O)c(-c2nnc(Cc3noc4ccccc34)o2)c(O)n1-c1c(CC)cccc1CC [Example 35, 5-[5-(1,2-benzoxazol-3-ylmethyl)-1,3,4-oxadiazol-2-yl]-1-(2,6-diethylphenyl)-2-(ethoxymethyl)-6-hydroxy-1,4-dihydropyrimidin-4-one]
0.01 to 10	–	CCOCc1nc(=O)c(-c2nnc(Cc3ccc(Cl)c(F)c3)o2)c(O)n1-c1c(OC)cccc1OC [Example 38, 5-{5-[(4-chloro-3-fluorophenyl)methyl]-1,3,4-oxadiazol-2-yl}-1-(2,6-dimethoxyphenyl)-2-(ethoxymethyl)-6-hydroxy-1,4-dihydropyrimidin-4-one]
0.01 to 10	–	CC(C)OCc1nc(=O)c(-c2nnc(Cc3noc4ccccc34)o2)c(O)n1-c1c(C2CC2)cccc1C1CC1 [Example 41, 5-[5-(1,2-benzoxazol-3-ylmethyl)-1,3,4-oxadiazol-2-yl]-1-(2,6-dicyclopropylphenyl)-6-hydroxy-2-[(propan-2-yloxy)methyl]-1,4-dihydropyrimidin-4-one]
0.01 to 10	–	COc1cccc(OC)c1-n1c(CCC2CC2)nc(=O)c(-c2nnc(Cc3csc(C)n3)o2)c1O [Example 44, 2-(2-cyclopropylethyl)-1-(2,6-dimethoxyphenyl)-6-hydroxy-5-{5-[(2-methyl-1,3-thiazol-4-yl)methyl]-1,3,4-oxadiazol-2-yl}-1,4-dihydropyrimidin-4-one]
0.01 to 10	–	COc1cccc(OC)c1-n1c(CCC2CC2)nc(=O)c(-c2nnc(Cn3ccccc3=O)o2)c1O [Example 46, 2-(2-cyclopropylethyl)-1-(2,6-dimethoxyphenyl)-6-hydroxy-5-{5-[(2-oxo-1,2-dihydropyridin-1-yl)methyl]-1,3,4-oxadiazol-2-yl}-1,4-dihydropyrimidin-4-one]
0.01 to 10	–	COc1cccc(OC)c1-n1c(CCC2CC2)nc(=O)c(-c2nnc(CN3CCOCC3=O)o2)c1O [Example 47, 4-({5-[2-(2-cyclopropylethyl)-1-(2,6-dimethoxyphenyl)-6-hydroxy-4-oxo-1,4-dihydropyrimidin-5-yl]-1,3,4-oxadiazol-2-yl}methyl)morpholin-3-one]
